In publication PMC4324364 (MedChemComm, 2014):
Read-outs that look alike come from different tables or passages of the source.

Legend:
L. major amastigotes = conditions: read-out: L. major Amast EC50, previously reported data; cited from earlier work
HepG2 cell line [1] = conditions: compound marked as previously reported data; cited from earlier work
Metabolic stability = conditions: in vitro ADME assays
HepG2 cell line [2] = assay: HepG2 host cell toxicity; assay type: cell-based, human
T. brucei [3] = assay: T. brucei cell growth inhibition; assay type: cell-based, Trypanosoma brucei
T. brucei [4] = conditions: cited from earlier work
[5] = cited from earlier work
[6] = system: P. falciparum (D6 strain); conditions: read-out: P. falciparum D6 EC50, previously reported data; cited from earlier work
L. major promastigotes = conditions: read-out: L. major Promast EC50, previously reported data; cited from earlier work
[7] = cited from earlier work; remark: listed apart in the source
T. cruzi = conditions: read-out: T. cruzi EC50; previously reported data, same assay; cited from earlier work
T. brucei [8] = conditions: read-out: T. brucei EC50; previously reported data, same assay; cited from earlier work

Question: Which results are given for Fc1cccc(COc2ccc(Nc3ncnc4ccc(-c5ccccc5)cc34)cc2Cl)c1 [4b]?
Answer: EC50 (L. major amastigotes): > 15 µM; HepG2 TC50 (concentration leading to 50% growth inhibition of host cells) (HepG2 cell line [1]): 4.9 µM

Question: Which “HepG2 TC50 (concentration leading to 50% growth inhibition of host cells)” value (HepG2 cell line [1]) does the source give for Fc1cccc(COc2ccc(Nc3ncnc4ccc(-c5ccc(CN6CCOCC6)cc5)cc34)cc2Cl)c1 [4j] here?
Answer: Its value is 12.9 µM.

Question: What does the source list for Fc1cccc(COc2ccc(Nc3ncnc4ccc(-c5ccc(N6CCOCC6)cc5)cc34)cc2Cl)c1 [4k]?
Answer: EC50 (L. major amastigotes): > 15 µM; HepG2 TC50 (concentration leading to 50% growth inhibition of host cells) (HepG2 cell line [1]): 9.6 µM

Question: With Cc1cc(-c2cc3ncnc(Nc4ccc(OCc5cccc(F)c5)c(Cl)c4)c3s2)cnc1N1CCOCC1 [11e] as the compound, how does the metabolic stability (Metabolic stability) read?
Answer: Its metabolic stability is “modest”.

Question: Which “HepG2 TC50 (concentration leading to 50% growth inhibition of host cells)” value (HepG2 cell line [2]) does the source give for Fc1cccc(COc2ccc(Nc3ncnc4sc(-c5ccccc5)cc34)cc2Cl)c1 [18b] here?
Answer: The value was 10.0 µM.

Question: For Fc1cccc(COc2ccc(Nc3ncnc4cc(C#C[C@@H]5CCCN5)sc34)cc2Cl)c1 [GW837016X], which “potency against T. brucei (in words)” value (T. brucei [3]) is on record?
Answer: Its value is “potent”.

Question: For CS(=O)(=O)CCNCc1ccc(-c2ccc3ncnc(Nc4ccc(OCc5cccc(F)c5)c(Cl)c4)c3c2)o1 [compound 1, lapatinib, reference compound], which “cure of infected mice” value (T. brucei [4]; murine model of HAT) is on record?
Answer: The value was 25%.

Question: Which plasma protein binding [5] does the source give for Fc1cccc(COc2ccc(Nc3ncnc4ccc(-c5cccc(N6CCOCC6)c5)cc34)cc2Cl)c1 [compound 2] here?
Answer: The plasma protein binding was over 99%.

Question: What about the EC50 [6] of the same compound?
Answer: Its EC50 is 230 nM.

Question: And the EC50 (L. major promastigotes)?
Answer: Its EC50 is 2970 nM.

Question: What about the metabolic stability (Metabolic stability) of the same compound?
Answer: Its metabolic stability is “modest”.

Question: What about the “central nervous system exposure” value [7] of the same compound?
Answer: Its value is “lack of central nervous system exposure”.

Question: And the oral bioavailability ([7]; mice)?
Answer: The oral bioavailability was “orally bioavailable”.

Question: And the EC50 (T. cruzi)?
Answer: Its EC50 is 1800 ± 900 nM.

Question: What about the EC50 (T. brucei [8]) of the same compound?
Answer: The EC50 was 42 ± 10 nM.

Question: What about the “effect on parasitemia and life extension” value (T. brucei [4]; murine T. brucei bloodstream infection) of the same compound?
Answer: Its value is “modest effect”.
